In assay [1] the target is T1, hDAT (Homo sapiens, UniProt Q01959).
T1 construct: expressed in transfected cells
Put plainly: Uptake inhibition assay in HEK293 cells expressing hDAT. The assay is classed as cell-based. The protocol: Human embryonic kidney 293 cells (HEK293 cells) were cultivated in Dulbecco’s Modified Eagle Medium (DMEM), containing 10% heat-inactivated fetal calf serum (FCS; 100 mL/L), streptomycin (100 μg/100 mL) and penicillin ([…]). Geneticin (50 μg/mL) was added to select cells stably expressing the human isoforms of dopamine, norepinephrine and serotonin transporter (hDAT, hNET, and hSERT, respectively) as described earlier. Cell lines were maintained in culture in humidified atmosphere (37 °C, 5% CO2), and passaged when reached 80–90% confluency. Cells expressing the desired transporter were seeded the day before the experiment (40,000 cells per well) or two days before the experiments (20,000 cells per well) onto poly-D-lysine (PDL)-coated 96-well plates.
Uptake inhibition experiments were carried out as reported previously. Ninety-six-well plates containing hDAT-, hNET- or hSERT-expressing cells were washed with Krebs-HEPES buffer (KHB; 25 mM HEPES, 120 mM NaCl, 5 mM KCl, 1.2 mM CaCl2, and 1.2 mM MgSO4 and 5 mM D-glucose, pH = 7.3). Cells were then preincubated with increasing concentrations of the compound diluted in KHB for 6 min. Following the pre-incubation of the cells with the compound, the tritiated substrate (hDAT: 0.15 μM [^3H]DA; hNET: 0.05 μM [^3H]MPP^+; hSERT: 0.1 μM [^3H]5-HT) was added to the wells. The uptake was terminated by removal of tritiated substrate and by washing the cells with ice-cold KHB after 1 min (for hDAT and hSERT) or 3 min (for hNET). Thereafter, 200 μL of Ultima Gold^TM XR scintillation cocktail (PerkinElmer, MA, USA) was added, the plates were shaken and the radioactivity accumulated into the cells determined in a Wal-lac 1450 MicroBeta TriLux Liquid Scintillation Counter & Lumi (GMI, Ramsey, MN, USA). Non- specific tritiated substrate uptake was measured in the presence of 100 μM cocaine (for hDAT and hNET) or 10 μM paroxetine (for hSERT), and subtracted from the data. Uptake in the presence of test drugs was normalized to the uptake in the presence of the vehicle.

For assay [2], the target named is T1, hDAT. In words: hDAT radioligand binding assay (CHO cells, [3H]BTCP). The protocol: Binding affinity to the hDAT, hNET and hSERT expressed in CHO cells was evaluated in in vitro radioligand binding assays. Binding assays were conducted according to the standard and validated protocols under conditions defined by the contractor (Eurofins Cerep SA, Celle-’Evescault, France; study number 100054410). Antagonist radioligand assays were conducted for the human norepinephrine, the human dopamine, and the serotonin transporters (using CHO cells), using [^3H]nisoxetine (1 nM), [^3H]BTCP (4 nM), and [^3H]imipramine (2 nM) as ligands and desipramine (1 µM), BTCP (10 µM), and imipramine (10 µM) as non-specific agents, respectively (with scintillation counting as detection method).

For assay [3], the system named is CA3-CA1 hippocampal synapses. Put plainly: Ex vivo hippocampal slice electrophysiology after i.p. treatment. The assay is classed as in vivo, rat. Conditions: 10 mg/kg i.p. The method, then: All electrophysiological experiments were conducted post mortem. Hippocampal slices (n = 12 animals/group) were prepared 1 h after the pharmacological treatments (animal experiments conducted under BMBWF-66.009/235/V/3b/2018 regulations). Animals underwent a brief sedative exposure to low CO2 inhalation and were immediately afterwards euthanized using a sharp-blade guillotining (DCAP-M, World Precision Instruments, Inc., Sarasota, FL, USA). The brains were removed and transferred to an ice-cold artificial Cerebrospinal Fluid (aCSF) solution containing (in mM): 125 NaCl, 2.5 KCl, 20 NaHCO3, 2.5 CaCl2, 1 MgCl2, 25 D-glucose, 1 NaH2PO4 (pH 7.4). Hippocampi were extracted and cut transversally with a tissue chopper (McIlwain TC752, Campden Instruments LTD., Loughborough, England) to obtain 400 µm-thick slices. Before electrophysiological assays, the slices rested for at least 1 h in a submerged recovery chamber (filled with aCSF) placed in a water bath with the temperature set at 30 °C. […]
Slice recordings were carried out in a submerged chamber receiving 3–4 mL/min of carbogenated aCSF (30 ± 2 °C). Field excitatory postsynaptic potentials (fEPSPs) were recorded using glass pipettes made of pulled capillary-glass obtained from Harvard Apparatus (Harvard Apparatus, GmbH; Hugo Sachs Elektronik, Germany). Evoked fEPSPs were recorded at the CA1 stratum-radiatum layer after electrically stimulating the collateral projections of Schaffer coming from the CA3 region as previously reported. […] Basal synaptic transmission was assessed by the generation of input/output (I/O) curves, resulting from the plotting of the field slope values (output; normalized to maximum) against the presented electrical stimulus intensity (input voltage). […] LTP was determined from the temporal progression of the fEPSP slope values (decaying phase) after LTP induction, normalized to the averaged slope values obtained before LTP-induction (base line values). The data for LTP from all slices were averaged for each animal (2–5 slices per rat were measured and averaged to yield one single value per animal). […]

Data on one compound can be found in article PMC9312958, “A Novel and Selective Dopamine Transporter Inhibitor, (S)-MK-26, Promotes Hippocampal Synaptic Plasticity and Restores Effort-Related Motivational Dysfunctions” (Biomolecules, 2022).

T1 sequence (Q01959 whole entry): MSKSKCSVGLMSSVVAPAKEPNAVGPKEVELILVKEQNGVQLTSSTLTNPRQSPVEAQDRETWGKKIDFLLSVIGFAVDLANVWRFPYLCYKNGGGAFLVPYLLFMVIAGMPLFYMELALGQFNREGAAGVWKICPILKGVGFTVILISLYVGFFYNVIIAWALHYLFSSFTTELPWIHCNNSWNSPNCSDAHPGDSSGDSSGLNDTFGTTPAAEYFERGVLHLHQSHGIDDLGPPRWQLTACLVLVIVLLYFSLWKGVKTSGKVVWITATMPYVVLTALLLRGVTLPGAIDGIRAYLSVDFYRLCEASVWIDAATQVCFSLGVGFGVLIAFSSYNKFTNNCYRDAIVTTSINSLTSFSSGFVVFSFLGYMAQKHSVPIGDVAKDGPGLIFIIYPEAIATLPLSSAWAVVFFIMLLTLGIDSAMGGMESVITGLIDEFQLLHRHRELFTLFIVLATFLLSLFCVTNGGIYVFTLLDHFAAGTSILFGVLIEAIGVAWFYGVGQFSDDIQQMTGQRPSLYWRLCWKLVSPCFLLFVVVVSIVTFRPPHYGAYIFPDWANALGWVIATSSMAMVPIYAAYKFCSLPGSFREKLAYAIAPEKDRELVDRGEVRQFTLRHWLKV

The IC50 is the concentration that gives 50% inhibition. Lower therefore signals higher potency. As a reminder, the Ki is the dissociation constant of the complex between target and ligand, obtained from inhibition or displacement. Higher therefore signals lower affinity. Compound `[O-][S@@+](Cc1cncs1)C(c1cccc(Cl)c1)c1cccc(Cl)c1` [(S)-MK-26, (S)-5-(((B(3-chlorophenyl)methyl)sulphinyl)methyl)thiazole] gave an IC50 against hDAT [1] of 560 nM. For the same compound, at hDAT [1] (uptake inhibition, HEK293), the “fold lower hDAT IC50 compared to (R)-MK-26” value is “approximately 65 fold” and the “fold lower hDAT IC50 compared to (R)-Modafinil” value turned out to be 10 fold. On hDAT [2], affinity was put at a Ki of 26 nM. In assay [3] (old rats (~20 months), slices 1 h after injection), the “basal synaptic transmission (I/O curves, fEPSP slopes)” value is on record as “no effects”. Moreover, the “Post-Tetanic Potentiation (1 min after LTP induction)” value in assay [3] (old rats) is “comparable to those from the Koliphor/control group”. The “LTP responses (25 min after LTP induction)” value in assay [3] (old rats, p = 0.0133) is “significant enhancement in their LTP responses”.
